From ChEMBL document CHEMBL1137509, “Taxodistines A and B, abietane-type diterpenes from Taxodium distichum” (Bioorg Med Chem Lett, 2007)
In brackets after ≈: the same amount, converted by molar mass. Activity calls are given as the source filed them. The calls are words filed in the database; no cut-off is given here.

Legend:
[1] = system: P388; assay: Cytotoxicity against mouse P388 cells; assay type: functional, cell-based
[2] = target: T1, Tubulin (Homo sapiens) (UniProt P68371+Q9H4B7+P0DPH7+P68366+Q13509+Q71U36+P04350+Q3ZCM7+P07437+P68363+Q9BQE3+Q6PEY2+Q13885+Q9BVA1+Q9BUF5); assay: Inhibition of tubulin polymerization at 200 uM after 30 mins; assay type: protein-complex assay
[3] = target: T1, Tubulin (Homo sapiens); assay: Inhibition of tubulin polymerization at 100 uM after 30 mins; assay type: protein-complex assay

Compound	IC50 [1] [mg/L]	Activity [2]	inhibition [3] [%]
CO[C@@H]1c2cc(C(C)C)c(O)c(O)c2[C@@]2(C)CCCC(C)(C)[C@@H]2[C@H]1O [TAXODISTINE A]	0.43 (≈ 1.23 µM)	inactive	
CO[C@@H]1c2cc(C(C)C)c(O)cc2[C@@]2(C)CCCC(C)(C)[C@@H]2[C@H]1O [TAXODISTINE B]	6.5 (≈ 19.5 µM)		90
CC(C)C1=CC2=CC(=O)[C@H]3C(C)(C)CCC[C@]3(C)C2=C(O)C1=O			45
